Data on one compound can be found in US20120083471A1, “Novel Compounds, Pharmaceutical Compositions Containing Same, Methods of Use for Same, and Methods for Preparing Same” (priority 2008, published 2012).

Structures are written as SMILES. “Also recorded” adds a separate entry of the source.

In the test the test system is lipogenic gene expression. As to the kind of experiment: Real-time RT-PCR gene expression in liver and white adipose tissue of 16 d treated DIO mice. Type of test: in vivo, mouse. On the procedure: Real-time RT-PCR. Hypothalamus, liver, and WAT of DIO and lean mice were harvested and immediately frozen in liquid nitrogen. Total RNA was isolated and real-time quantitative RT-PCR was performed as previously described (13). Gene-specific primer pairs were designed using Primer3 software (http://www-genome.wi.mit.edu/cgi-bin/primer/primer3_www.cgi/). The sequences of the primer pairs are listed in Supplemental Data Table 1.
To further explore the mechanism responsible for the reduction in adipose tissue mass, we used real-time RT-PCR to measure the expression of the following key lipogenic genes in white adipose tissue from vehicle control, pair-fed, and FSG67 treated DIO mice from the second indirect calorimetry trial (see FIG. 12c): fatty acid synthase (FAS), responsible for the de novo reductive synthesis of fatty acid 13, acetyl-CoA carboxylase 1 (ACC1), the cytoplasmic isoform of ACC expressed in lipogenic organs that synthesizes malonyl-CoA used as a substrate of FAS for fatty acid synthesis 14, peroxisome proliferator-activated receptor gamma (PPARγ) a key transcription factor for adipogenesis 15, lipid partitioning 16, and postprandial lipid storage 17, and GPAT. […] (FIG. 19). Thus, pharmacological GPAT inhibition not only increases fatty acid oxidation and reduces food intake, but up-regulates UCP2 in liver and white adipose tissue while down-regulating lipogenic gene expression in white adipose tissue, all of which should favor a selective decrease in adiposity. […]
On the technique in general: Real-time PCR tracks product formation cycle by cycle.

Setting [1] is: vs control and pair-fed, listed as FSG67.

On to `CCCCCCCCCS(=O)(=O)Nc1ccccc1C(=O)O` [Compound 15g, 2-(Nonylsulfonamido)benzoic acid], for which, under “listed as FSG67”, the “GPAT expression in liver” value was “unaffected”; the “L-CPT-1 expression in liver and WAT” value was “unaffected; also recorded: not affected”. Besides, the “UCP2 expression in liver” value (vs control) is “increased”. Under setting [1], the “ACC1 expression in white adipose tissue” value is on record as “substantial down-regulation; also recorded: down regulated”, the “FAS expression in white adipose tissue” value is recorded as “substantial down-regulation; also recorded: down regulated”, the “GPAT expression in white adipose tissue” value is given as “substantial down-regulation; also recorded: down regulated” and the “PPARγ expression in white adipose tissue” value is given as “substantial down-regulation; also recorded: down regulated”. Further, the “UCP2 expression in WAT” value (vs pair-fed) is “increased”. Besides, the “ACC1 expression in liver” value (vs pair-fed, listed as FSG67) is “significant reduction; also recorded: reduced”. Besides, the “FAS expression in liver” value (vs vehicle and pair-fed, listed as FSG67) is recorded as “significant reduction; also recorded: reduced”.
